The values that follow come from patent US12485117B2, “Compositions and methods for activating signaling through the CB1 cannabinoid receptor for treating and preventing diseases and disorders characterized by abnormal cellular accumulation of sphingolipids such as sphingomyelin” (Wylder Nation Foundation, priority 2018, dated 2025).

The subject of data set [1] is cultured primary hippocampal neurons from ASMko mice. The data set can be described thus: Sphingomyelin levels by enzymatic assay in cultured primary hippocampal neurons from ASMko mice. It is filed as cell-based, mouse. The text has this: FIGS. 5A-5D show sphingomyelin and endocannabinoid levels in cultured primary hippocampal neurons and hippocampal tissue, respectively, from ASMko and wildtype mice.
Statistical significance Student's t-test, *P<0.05, **P<0.005, n=3 independent cultures.
Statistical significance Student's t-test, **P<0.005, n=3 independent cultures.
Anandamide (AEA) is the major endogenous CB1 ligand. We therefore tested whether increased levels of anandamide affected sphingomyelin levels in cultured primary hippocampal neurons from ASMko mice. Anandamide was increased in two ways: • 1. By incubating the neuronal cultures with exogenous anandamide; and • 2. By incubating the neuronal cultures with PF-04457845, which is an inhibitor of the anandamide hydrolytic enzyme FAAH. Inhibition of FAAH causes accumulation of anandamide by inhibiting FAAH-mediated hydrolyzation of anandamide.
The following experiments were performed in three independent cultures of hippocampal neurons derived from ASMko mice. Treatments were done at 11-13 days in vitro when these cells are considered mature and functional.
To set the optimal conditions for such hydrolysis in terms of concentration and time of incubation, anandamide was added to the culture medium of mature ASMko hippocampal neurons at 0, 5, 25, 50 and 100 μM for 30 minutes or 1 hour. […] The optimal conditions for SM degradation were in a range of concentration of 25-50 μM for 1 hour. […] We therefore decided to use 25 μM anandamide for 1-hour incubation time in our next experiments.
Similar to the anandamide dose/time response experiment above, we performed another dose response experiment using URB597 (URB), an inhibitor of the anandamide-hydrolyzing enzyme FAAH, to be used as reference for the other FAAH inhibitors. The experiments were done in the presence or absence of exogenous anandamide. URB was added to the culture medium of ASMko mature neurons at 0, 5, 25 and 50 μM for 1 hour with or without □□ μM anandamide.
We next compared URB efficacy to reduce SM levels with that of other FAAH inhibitors PF-04457845 (PF) and JNJ-1661010 (JNJ).

The test system of data set [2] is wt and ASMko mice. Kind of data set: Accelerating Rotarod (motor abilities). It is filed as in vivo, mouse. The following applies: 0.3 mg/kg every three days. The protocol:
Treatment started at 7 weeks of age and continued for 8 weeks. PF-04457845 was dissolved in 0.9% NaCl and delivered through oral gavage at a dose of 0.3 mg/kg every three days. We chose this dose based on the studies published by Ahn et al., (J Pharm Exp Ther 2011). Control groups received same volume of 0.9% NaCl without PF-04457845.
Cerebellar dependent motor abilities were monitored in an accelerating Rotarod (FIG. 12) on which the mice were trained for two days at a constant speed: the first day four times at 4 rpm for 1 min and the second day four times at 8 rpm for 1 min. On the third day, the Rotarod was set to progressively accelerate from 4 to 40 rpm for 5 min and the mice were tested four times. During the accelerating trials, the latency to fall from the rod was measured. Non-treated ASMko mice spent less time on the rod in the four trials than wt mice, indicative of impaired motor abilities.

In the next data set the test system is wt or ASMko mice. Kind of data set: Acute toxicity: in-life observations for 48 hours after a single oral dose. The data set is classed as in vivo, mouse. As to conditions: 48 hours after single oral dose, any of the doses (0.1, 1, 5 mg/kg). How it is done: To that end, a toxicity assessment of oral PF-04457845 treatment in AMSko mice was performed to determine the toxicity in liver and brain of single doses of PF-04457845 administered by oral gavage at different concentration.
(§1) We divided wt and ASMko mice of 4.5 months of age in six experimental groups: ASMko control (n=3), ASMko low dose (n=3), ASMko intermediate dose (n=3), ASMko high dose (n=3), wt control (n=3), wt high dose (n=3). PF-04457845, provided as powder, was dissolved in 0.9% NaCl and administered to mice through oral gavage. Vehicle groups received same volume of 0.9% NaCl.
Doses have been calculated taking into account that used in the study conducted in healthy humans (Li et al., Br J Clin Pharmacol 2011, 73:706-716). […] Estimating an average weight of 60 kg for an adult human the daily dose equals to 0.0083 mg/kg. This dose was very similar to that used in our first 8 week-long treatment with PF-04457845 in ASMko mice, which according to the formulas to calculate equivalence between humans and mice (Nair and Jacob J Basic Clin Pharma 2016, 7:27-31) corresponded to a daily HED dose of 0.0072 mg/kg. For this toxicity study we agreed to take into account the human dose: 0.0083 mg/kg. Formula conversion to mouse dose: HED (mg/kg)=Mouse dose (mg/kg)×mouseKm/Human Km).

Data set [3] has as its system wt and ASMko mice. The data set can be described thus: Acute toxicity: SM and ceramide levels in blood. The data set is classed as in vivo, mouse. How it is done: as §1
After these 48 hours and immediately before termination we collected blood from mice and prepared serum by leaving blood samples 30 minutes for clotting at room temperature and by collecting the supernatant after centrifugation at 6000 rpm for 10 minutes. Following termination, mice were transcardially perfused with phosphate-buffered saline (PBS).
SM and ceramide levels were also monitored in the blood of wt and ASMko mice with and without PF-04457845 treatment as a readout of acute toxicity.

The next data set relates to pediatric ASMD patient. Kind of data set: Single patient preliminary clinical trial: liver enzymes ALT and AST. It is filed as in vivo, human. The text has this:
Based on the compelling safety and efficacy data from the ASMko mouse model, we submitted an expanded access request to the Food and Drug Administration for a single patient preliminary clinical trial to assess the effect of PF-04457845 administration to a single pediatric ASMD patient. The FDA approved the trial, and it is presently ongoing. The patient received their first does of PF-04457845 (which is being administered via NG-tube delivery) nearly one year ago now, and the patient will continue to be monitored for improvement in ASMD-related symptoms and/or markers.
Although clinical trial data is not available to us yet, it is worth noting as per the normal standard of care for this patient, weekly or biweekly monitoring of liver enzymes alanine aminotransferase (ALT) and aspartate transaminase (AST) has been ongoing since before initiation of the trial and these analyses are ongoing. Elevated blood levels of AST and ALT are seen in 50%-75% of ASMD patients (McGovern M, et al., Orphanet J Rare Dis. 2017; 12: 41) and are indicative of liver damage caused by the progression of the disease. […] Moreover, ALT/AST ratios appear stable.

Where [4] appears, read: about one year of treatment via NG-tube, preliminary.

Take `O=C(Nc1cccnn1)N1CCC(=Cc2cccc(Oc3ccc(C(F)(F)F)cn3)c2)CC1` [PF-04457845]: the SM hydrolysis result in data set [1] (50 μM and 1 hour (FIG. 8)) is reported as “promoted SM hydrolysis”. Also, the sphingomyelin levels entry in data set [1] (ASMko neurons, 1 hour incubation (FIG. 5A)) is given as “reduced sphingomyelin levels”. Moreover, the “time on the rod (Rotarod)” value with wt and ASMko mice [2] (ASMko mice, second, third and fourth trials) is given as “significantly improved the time on the rod”. Also, the “time on the rod (Rotarod), treated versus non-treated” value with wt and ASMko mice [2] (wt mice) was “No differences”. In the data set on wt or ASMko mice, the “adverse effects (abnormal behavior, weight loss, motor anomalies, skin alterations)” value is reported as “No evident adverse effects”. Further, the “SM levels in blood” value with wt and ASMko mice [3] (ASMko mice, single doses 0.1, 1, 5 mg/kg (data not shown)) was “moderate dose-dependent decrease”. Further, the “ceramide levels in blood” value in the data set with wt and ASMko mice [3] (single dose of 0.1 mg/kg (data not shown)) is given as “high variability with a tendency to increase”; in the data set with wt and ASMko mice [3] (single dose of 1 mg/kg (data not shown)) it was “decreased”; with wt and ASMko mice [3] (single dose of 5 mg/kg (data not shown)) it was “decreased”. Further, the ALT/AST ratios entry in the data set with pediatric ASMD patient (about one year of treatment) is reported as “stable”. Also, the “ALT, current value relative to pre-treatment” value with pediatric ASMD patient (setting [4]) is given as “approximately half”. In the data set on pediatric ASMD patient (setting [4]), the “AST, current value relative to pre-treatment” value is “approximately half”. In the data set with pediatric ASMD patient (about one year of treatment, preliminary), the tolerability result is reported as “well tolerated without signs of liver toxicity”.
